Measurements: ChEMBL document CHEMBL1124465, “Dynamics and thermodynamics of the counterion effect in a 7H-pyridocarbazole dimer (ditercalinium). Hypothesis of a nonbisintercalative binding mode to calf thymus DNA at high drug/base ratio” (J Med Chem, 1989)

Legend:
Nucleic Acid [1] = experiment: Monointeraction into calf thymus DNA at pH 5; assay type: nucleic-acid assay
Nucleic Acid [2] = experiment: Monointeraction into calf thymus DNA at pH 7.4; assay type: nucleic-acid assay

Ka (Nucleic Acid [1]): 5e+08 M⁻¹
Ka (Nucleic Acid [2]): 2e+07 M⁻¹
Structure (SMILES): COc1ccc2[nH]c3ccc4cc[n+](CCN5CCC(C6CCN(CC[n+]7ccc8ccc9[nH]c%10ccc(OC)cc%10c9c8c7)CC6)CC5)cc4c3c2c1
